Results on 15 compounds are retold here after patent publication US10947242B2, “[1,2,4]triazolo[1,5and#8208;A]pyrimidine compounds as PDE2 inhibitors” (Janssen Pharmaceutica NV, priority 2016, dated 2021).

In test [1] the target is T1, Human recombinant PDE2A (hPDE2A) (Homo sapiens, UniProt O00408).
T1 construct: His tag (inferred from metal chelate purification); made in house; host or cells: Sf9 insect cells (baculovirus)
Description: In vitro assay PDE2A (SPA, 3H-cGMP hydrolysis). Particulars: for Emax: read-out: hPDE2A Emax. The test is classed as biochemical.

Test [2] deals with T2, Human recombinant PDE3A (hPDE3A) (Homo sapiens, UniProt Q14432).
T2 construct: purchased Scottish Biomedical; host or cells: Sf9 insect cells
T2 sequence (Q14432 whole entry): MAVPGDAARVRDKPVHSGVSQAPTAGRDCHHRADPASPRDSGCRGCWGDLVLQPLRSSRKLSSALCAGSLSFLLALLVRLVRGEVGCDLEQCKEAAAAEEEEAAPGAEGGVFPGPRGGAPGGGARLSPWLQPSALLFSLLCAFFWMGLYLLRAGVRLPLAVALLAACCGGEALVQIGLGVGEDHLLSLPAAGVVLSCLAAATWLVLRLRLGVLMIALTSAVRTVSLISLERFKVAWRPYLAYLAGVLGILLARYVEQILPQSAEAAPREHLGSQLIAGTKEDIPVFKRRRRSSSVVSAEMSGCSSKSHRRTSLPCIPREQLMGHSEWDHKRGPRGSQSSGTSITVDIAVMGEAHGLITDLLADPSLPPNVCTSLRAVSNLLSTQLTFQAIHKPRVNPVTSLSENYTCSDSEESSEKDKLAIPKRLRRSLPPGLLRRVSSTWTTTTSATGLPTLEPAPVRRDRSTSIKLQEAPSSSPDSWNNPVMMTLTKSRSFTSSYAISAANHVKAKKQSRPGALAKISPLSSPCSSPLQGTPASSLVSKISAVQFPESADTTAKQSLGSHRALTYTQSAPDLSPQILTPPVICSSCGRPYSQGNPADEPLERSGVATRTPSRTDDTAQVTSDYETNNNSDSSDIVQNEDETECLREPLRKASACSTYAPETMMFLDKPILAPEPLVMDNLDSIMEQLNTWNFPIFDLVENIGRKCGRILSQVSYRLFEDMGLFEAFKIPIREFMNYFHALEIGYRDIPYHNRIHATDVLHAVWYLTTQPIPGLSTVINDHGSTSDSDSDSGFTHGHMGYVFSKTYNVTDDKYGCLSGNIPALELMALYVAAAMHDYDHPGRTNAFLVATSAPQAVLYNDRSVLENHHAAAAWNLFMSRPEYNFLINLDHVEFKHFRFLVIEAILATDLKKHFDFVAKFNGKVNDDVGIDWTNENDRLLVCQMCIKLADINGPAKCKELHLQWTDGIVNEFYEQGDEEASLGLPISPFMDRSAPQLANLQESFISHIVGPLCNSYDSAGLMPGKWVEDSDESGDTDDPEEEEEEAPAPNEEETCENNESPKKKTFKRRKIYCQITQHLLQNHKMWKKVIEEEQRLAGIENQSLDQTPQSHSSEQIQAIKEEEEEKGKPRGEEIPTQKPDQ
The test can be described thus: In vitro assay PDE3A (SPA, 3H-cAMP hydrolysis).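 As to all read-outs here: the method names PDE3A and the table heading PDE3B.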 The format is biochemical. The settings on record: for IC50: hPDE3B pIC50, read-out: pIC50 (converted); for Emax: read-out: hPDE3B Emax, read-out: Emax. In a few lines: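 Radiometric SPA measuring [3H]-cAMP hydrolysis (0.4 μM cAMP, 2.4 μCi/ml) over 60 min at room temperature, in Tris pH 7.8 buffer with MgCl2 and EGTA, 1% DMSO. Enzyme: recombinant human brain PDE3A expressed in Sf9 cells, used as partially purified lysate. Counts compared with enzyme-free blanks and vehicle controls.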

In test [3] the target is T3, Human recombinant PDE10A (hPDE10A) (Homo sapiens, UniProt Q9Y233).
T3 construct: His tag (inferred from metal chelate purification); made in house; host or cells: Sf9 insect cells (baculovirus)
T3 sequence (Q9Y233 267-1055): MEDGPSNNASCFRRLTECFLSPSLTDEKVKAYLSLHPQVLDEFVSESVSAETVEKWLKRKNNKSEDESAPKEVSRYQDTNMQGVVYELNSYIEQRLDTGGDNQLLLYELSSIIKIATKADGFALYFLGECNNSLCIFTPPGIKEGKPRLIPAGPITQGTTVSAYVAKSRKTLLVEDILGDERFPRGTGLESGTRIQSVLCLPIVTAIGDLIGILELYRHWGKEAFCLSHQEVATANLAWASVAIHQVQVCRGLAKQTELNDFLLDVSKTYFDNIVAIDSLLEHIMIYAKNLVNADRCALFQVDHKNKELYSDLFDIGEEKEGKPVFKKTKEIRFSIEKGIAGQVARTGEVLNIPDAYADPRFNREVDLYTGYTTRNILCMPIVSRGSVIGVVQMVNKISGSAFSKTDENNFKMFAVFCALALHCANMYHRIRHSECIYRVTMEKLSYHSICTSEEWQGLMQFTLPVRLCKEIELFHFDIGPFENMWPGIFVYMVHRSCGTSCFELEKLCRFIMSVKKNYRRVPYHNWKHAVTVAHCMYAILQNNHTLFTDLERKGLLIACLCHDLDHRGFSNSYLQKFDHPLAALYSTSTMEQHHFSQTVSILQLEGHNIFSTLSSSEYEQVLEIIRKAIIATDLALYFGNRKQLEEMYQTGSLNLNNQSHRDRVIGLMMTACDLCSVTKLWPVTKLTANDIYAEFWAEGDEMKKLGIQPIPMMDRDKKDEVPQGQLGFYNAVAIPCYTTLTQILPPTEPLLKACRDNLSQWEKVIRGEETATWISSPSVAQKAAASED
The test can be described thus: In vitro assay PDE10A, human clone (SPA, 3H-cAMP hydrolysis). The test is classed as biochemical. Particulars: human clone (h), default; for Emax: read-out: hPDE10A2 Emax; for IC50: read-out: hPDE10A2 pIC50 (converted). In a few lines:
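Hydrolysis of 3H-cAMP (60 nM cAMP, 0.008 μCi tracer) proceeded for 60 min at room temperature, with the product detected by SPA bead scintillation counting. The enzyme was hPDE10A from baculovirus-infected Sf9 cells in Tris pH 7.8 buffer with MgCl2 and EGTA, and compounds were at 1% DMSO final. Blanks lacked enzyme.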

In a further test the target is T4, PDE2A (Rattus norvegicus, UniProt Q01062).
T4 construct: Twenty μm-thick striatal sections were cut; from tissue; host or cells: rat brain, striatal sections
T4 sequence (Q01062 1-928): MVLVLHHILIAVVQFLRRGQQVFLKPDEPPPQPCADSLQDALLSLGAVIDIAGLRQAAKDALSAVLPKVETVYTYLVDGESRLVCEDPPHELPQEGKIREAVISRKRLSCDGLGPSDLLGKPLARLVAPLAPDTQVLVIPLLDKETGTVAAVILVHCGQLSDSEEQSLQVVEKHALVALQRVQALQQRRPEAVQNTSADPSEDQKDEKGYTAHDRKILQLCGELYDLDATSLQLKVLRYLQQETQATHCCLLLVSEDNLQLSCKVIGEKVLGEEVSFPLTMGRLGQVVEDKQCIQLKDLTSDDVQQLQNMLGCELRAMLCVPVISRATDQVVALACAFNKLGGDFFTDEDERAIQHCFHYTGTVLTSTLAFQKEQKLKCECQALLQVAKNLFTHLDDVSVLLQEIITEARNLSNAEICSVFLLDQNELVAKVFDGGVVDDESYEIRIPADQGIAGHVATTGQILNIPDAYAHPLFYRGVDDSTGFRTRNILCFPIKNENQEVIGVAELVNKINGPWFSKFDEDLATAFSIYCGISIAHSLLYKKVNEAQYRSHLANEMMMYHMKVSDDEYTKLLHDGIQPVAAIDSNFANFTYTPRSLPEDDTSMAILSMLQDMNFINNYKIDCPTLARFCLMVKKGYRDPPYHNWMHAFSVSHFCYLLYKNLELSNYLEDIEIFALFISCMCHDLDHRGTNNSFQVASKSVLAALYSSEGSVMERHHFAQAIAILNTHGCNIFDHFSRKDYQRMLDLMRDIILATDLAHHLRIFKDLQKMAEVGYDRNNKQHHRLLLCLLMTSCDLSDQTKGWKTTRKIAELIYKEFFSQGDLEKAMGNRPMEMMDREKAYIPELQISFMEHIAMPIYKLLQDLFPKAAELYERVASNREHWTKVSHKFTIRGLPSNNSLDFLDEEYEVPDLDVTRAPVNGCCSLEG
Description: PDE2 occupancy by test compounds, ex-vivo autoradiography with [3H]B-17a. The test is classed as in vivo, Male Wistar rats. The settings on record: for receptor occupancy at 10 mg/kg: percentage receptor occupancy, ex-vivo autoradiography, striatum.

The mark [4] stands for this setting: human recombinant PDE2A, 10 μM cGMP substrate, read-out: hPDE2A pIC50 (converted).
[5] abbreviates: read-out: hPDE2A pIC50 (converted).

“And” between values parts separate entries of the source, which are not always exact repeats. Identical values can stand only once. Like-named read-outs stand apart in the source and are kept apart here.

T1 sequence (O00408 whole entry): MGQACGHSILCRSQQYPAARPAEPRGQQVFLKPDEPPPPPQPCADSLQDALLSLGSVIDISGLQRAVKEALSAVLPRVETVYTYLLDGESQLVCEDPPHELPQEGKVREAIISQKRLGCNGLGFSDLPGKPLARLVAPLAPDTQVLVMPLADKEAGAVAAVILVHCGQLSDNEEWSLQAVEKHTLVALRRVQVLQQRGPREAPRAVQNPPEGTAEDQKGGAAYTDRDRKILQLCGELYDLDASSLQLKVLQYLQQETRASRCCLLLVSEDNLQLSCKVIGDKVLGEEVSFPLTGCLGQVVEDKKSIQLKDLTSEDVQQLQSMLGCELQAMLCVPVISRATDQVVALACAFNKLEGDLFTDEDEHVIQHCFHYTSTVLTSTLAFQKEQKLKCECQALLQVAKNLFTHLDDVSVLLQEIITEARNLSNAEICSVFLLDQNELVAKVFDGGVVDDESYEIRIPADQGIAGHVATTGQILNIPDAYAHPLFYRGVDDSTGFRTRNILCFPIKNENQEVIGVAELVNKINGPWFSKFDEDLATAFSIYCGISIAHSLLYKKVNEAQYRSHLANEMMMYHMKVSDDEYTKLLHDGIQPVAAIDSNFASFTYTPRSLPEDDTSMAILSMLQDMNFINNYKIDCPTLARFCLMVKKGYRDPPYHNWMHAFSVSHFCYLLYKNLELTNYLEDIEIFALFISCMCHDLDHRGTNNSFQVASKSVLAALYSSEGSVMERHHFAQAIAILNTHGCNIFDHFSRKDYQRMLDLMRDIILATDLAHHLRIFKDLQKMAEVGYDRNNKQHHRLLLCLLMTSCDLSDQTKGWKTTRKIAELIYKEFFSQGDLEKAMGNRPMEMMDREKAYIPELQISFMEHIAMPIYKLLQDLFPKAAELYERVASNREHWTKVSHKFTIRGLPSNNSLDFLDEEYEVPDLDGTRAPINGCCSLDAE

As a reminder, the Emax is the size of the effect at its maximum, as opposed to the concentration needed. For the compound `C[C@@H]1CCN(C(=O)c2nc3ccccc3o2)C[C@H]1c1cc(C(F)F)nc2ncnn12` [Compound 47], the IC50 is 2.51 nM in test [1] (setting [4]), 2.51 nM in test [1] (setting [5]), 3390 nM in test [2] and 646 nM in test [3]. Moreover, the maximal effect (Emax) was 99% in test [1] (human recombinant PDE2A), 99% in test [1], 80% in test [2] and 92% in test [3]. Moreover, the receptor occupancy at 10 mg/kg on PDE2A (po, route PO (oral)) came to 5%.
`Cc1c(C(=O)N2CC[C@@H](C)[C@H](c3cc(C(F)F)nc4ncnn34)C2)oc2ccccc12` [Compound 48]: the IC50 in test [1] (setting [4]) is 0.174 nM; in test [1] (setting [5]) it was 0.174 nM; in test [2], 87.1 nM; in test [3], 43.7 nM. Moreover, the Emax in test [1] (human recombinant PDE2A) was 100%; in test [1], 100%; in test [2], 99%; in test [3], 100%. Also, the receptor occupancy at 10 mg/kg on PDE2A (sc, route SC (subcutaneous)) came to 96%.
For `Cc1nc2cccc(C(=O)N3CC[C@@H](C)[C@H](c4cc(C(F)F)nc5ncnn45)C3)c2o1` [Compound 50], the IC50 in test [1] (setting [4]) was 3.09 nM; in test [1] (setting [5]) it was 3.09 nM; in test [2] it was above 10000 nM; in test [3] it was 724 nM. Also, the Emax came out at 100% in test [1] (human recombinant PDE2A), 100% in test [1], 61% in test [2] and 93% in test [3]. Moreover, the receptor occupancy at 10 mg/kg on PDE2A (po, route PO (oral)) was -30%.
Turning to `Cc1cc(C(=O)N2CC[C@@H](C)[C@H](c3cc(C(F)F)nc4ncnn34)C2)c(Cl)cn1` [Compound 51], the IC50 in test [1] (setting [4]) was 5.5 nM; in test [1] (setting [5]), 5.5 nM; in test [2], above 10000 nM; in test [3], 1260 nM. For the same compound, the Emax in test [1] (human recombinant PDE2A) was 101%; in test [1], 101%; in test [2], 44%; in test [3] it was 86%. At PDE2A (po, route PO (oral)), the receptor occupancy at 10 mg/kg was determined as 20%.
Turning to `COc1cc(C(=O)N2CC[C@@H](C)[C@H](c3cc(C(F)F)nc4ncnn34)C2)c(C)cn1` [Compound 53], the IC50 in test [1] (setting [4]) was 5.62 nM; in test [1] (setting [5]) it was 5.62 nM; in test [2], 6760 nM; in test [3] it was 776 nM. The Emax in test [1] (human recombinant PDE2A) came out at 100%; in test [1] it was 100%; in test [2], 62%; in test [3] it was 89%. The receptor occupancy at 10 mg/kg on PDE2A (po, route PO (oral)) is 22%.
In the case of `C[C@@H]1CCN(C(=O)c2cc(Cl)ncc2F)C[C@H]1c1cc(C(F)F)nc2ncnn12` [Compound 54], the IC50 in test [1] (setting [4]) is 4.17 nM; in test [1] (setting [5]) it was 4.17 nM; in test [2], 9550 nM; in test [3], 661 nM. In addition, the Emax in test [1] (human recombinant PDE2A) was determined as 100%; in test [1] it was 100%; in test [2], 51%; in test [3], 89%. Also, at PDE2A (po, route PO (oral)), the receptor occupancy at 10 mg/kg was found to be 39%.
With `Cc1ccc2cc(C(=O)N3CC[C@@H](C)[C@H](c4cc(C(F)F)nc5ncnn45)C3)c(C)nc2c1` [Compound 60], the IC50 in test [1] (setting [4]) was 0.851 nM; in test [1] (setting [5]), 0.851 nM; in test [2] it was 1100 nM; in test [3], 151 nM. In addition, the Emax was determined as 100% in test [1] (human recombinant PDE2A), 100% in test [1], 92% in test [2] and 97% in test [3]. For the same compound, on PDE2A (po, route PO (oral)), the receptor occupancy at 10 mg/kg was 32%.
Regarding `C[C@@H]1CCN(C(=O)c2cnc(Cl)c(Cl)c2)C[C@H]1c1cc(C(F)F)nc2ncnn12` [Compound 64], the IC50 in test [1] (setting [4]) is 1.58 nM; in test [1] (setting [5]) it was 1.58 nM; in test [2] it was 6760 nM; in test [3], 355 nM. The Emax in test [1] (human recombinant PDE2A) is 99%; in test [1] it was 99%; in test [2], 62%; in test [3] it was 96%. Also, at PDE2A (po, route PO (oral)), the receptor occupancy at 10 mg/kg is 7%.
Take `COc1ccc(C(=O)N2CC[C@@H](C)[C@H](c3cc(C(F)F)nc4ncnn34)C2)nc1` [Compound 66]: the IC50 was 17.4 nM in test [1] (setting [4]), 17.4 nM in test [1] (setting [5]), above 10000 nM in test [2] and 2290 nM in test [3]. Further, the Emax in test [1] (human recombinant PDE2A) was found to be 99%; in test [1], 99%; in test [2], 48%; in test [3], 79%. For the same compound, on PDE2A (po, route PO (oral)), the receptor occupancy at 10 mg/kg was -14%.
`Cc1nccc(C(=O)N2CC[C@@H](C)[C@H](c3cc(C(F)F)nc4ncnn34)C2)c1F` [Compound 68]: the IC50 in test [1] (setting [4]) is 6.31 nM; in test [1] (setting [5]), 6.31 nM; in test [3] it was 1380 nM. In addition, the Emax in test [1] (human recombinant PDE2A) worked out at 99%; in test [1] it was 99%; in test [2], 50%; in test [3], 85%. Further, the receptor occupancy at 10 mg/kg on PDE2A (sc, route SC (subcutaneous)) worked out at 31%.
What is called ED50 is the midpoint of the dose-response relation. For the compound `Cc1cc(C(=O)N2CC[C@@H](C)[C@H](c3cc(C(F)F)nc4ncnn34)C2)c(F)c(C)n1` [Compound 70], the IC50 was 1.74 nM in test [1] (setting [4]); 1.95 nM in test [1] (setting [5]); 5130 nM in test [2]; 331 nM and 380 nM in test [3]. Moreover, the Emax in test [1] (human recombinant PDE2A) is 102%; in test [1], 102%; in test [2] it was 66%; in test [3] it was 93%. Moreover, in test [3], the “hPDE10A2 Emax” value was found to be 95. In addition, the ED50 at PDE2A (route PO (oral), drug dose producing 50% receptor occupancy, read-out: PDE Occupancy ED50) amounted to 6.4 mg/kg. Moreover, on PDE2A (sc, route SC (subcutaneous)), the receptor occupancy at 10 mg/kg was 65%.
In the case of `C[C@@H]1CCN(C(=O)c2cc(Cl)nc(Cl)c2F)C[C@H]1c1cc(C(F)F)nc2ncnn12` [Compound 71], the IC50 is 1.86 nM in test [1] (setting [4]), 1.86 nM in test [1] (setting [5]), above 1000 nM in test [2] and 339 nM in test [3]. Further, the Emax in test [1] (human recombinant PDE2A) was found to be 98%; in test [1], 98%; in test [2], 32%; in test [3] it was 94%. On PDE2A (sc, route SC (subcutaneous)), the receptor occupancy at 10 mg/kg is 49%.
For `COc1ncc(C(=O)N2CC[C@@H](C)[C@H](c3cc(C(F)F)nc4ncnn34)C2)cc1C1CC1` [Compound 73], the IC50 is 1.95 nM in test [1] (setting [4]), 1.95 nM in test [1] (setting [5]), 2630 nM in test [2] and 219 nM in test [3]. Besides, the Emax worked out at 101% in test [1] (human recombinant PDE2A), 101% in test [1], 83% in test [2] and 98% in test [3]. Also, the receptor occupancy at 10 mg/kg on PDE2A (po, route PO (oral)) is 0%.
Take `COc1c(C)cc(C(=O)N2CC[C@@H](C)[C@](F)(c3cc(C(F)F)nc4ncnn34)C2)cc1C` [Compound 74]: the IC50 in test [1] (setting [4]) was 30.2 nM; in test [1] (setting [5]), 30.2 nM; in test [2] it was above 10000 nM; in test [3], above 10000 nM. For the same compound, the maximal response (Emax) in test [1] (human recombinant PDE2A) was determined as 101%; in test [1] it was 101%; in test [2], 30%; in test [3], 36%. Besides, the receptor occupancy at 10 mg/kg on PDE2A (sc, route SC (subcutaneous)) is 14%.
In the case of `Cc1cc(C(=O)N2CC[C@@H](C)[C@H](c3cc(C(F)F)nc4ncnn34)C2)cc(C)c1Cl` [Compound 76], the IC50 is 0.229 nM in test [1] (hPDE2A pIC50); 0.229 nM in test [1] (hPDE2A pIC50, human recombinant PDE2A, 10 μM cGMP substrate); 1230 nM in test [2]; 31.6 nM in test [3]. In addition, the Emax in test [1] is 99%; in test [2] it was 91%; in test [3], 101%. Also, the receptor occupancy at 10 mg/kg on PDE2A (po, route PO (oral)) was found to be 17%.
